Experiments:
Format in all cases: cell-based, human
Bcl-xL = assay: Western blot of Bcl-xL phosphorylation; conditions: HT29 cells, 3, 6 and 24 h
Experimental: (§1) Western blotting. Floating and adherent cells were harvested and pellets were resuspended in RIPA buffer (50 mM Tris/HCl 7.4, 250 mM NaCl, 0,5% Igepal CA630, 5 mM EDTA, 1 mM PMSF, 10 μg/ml leupeptin, 50 mM NaF, 0.1 mM Na3VO4) or Deoxycholate buffer (10 mM phosphate buffer 7.4, […] NaCl, 0.5% Deoxycholate, 1% Igepal, 0.1% SDS, 1 mM PMSF). Protein concentration was determined with BCA Protein Assay Kit (Pierce) for RIPA extracts or Bradford assay (BioRad) for Deoxycholate extracts. Total protein (20-30 μg/lane) were separated by SDS-PAGE, transferred to PVDF membranes (Gellman), and probed with antibodies against Bcl-xL (Transduction); Bax (Santa Cruz); JNK (Santa Cruz); phospho-JNK (Cell Signaling); pRb (Pharmingen); pRb-phospho Ser780 (Cell Signalling); p130 (Santa Cruz); p107 (Santa Cruz); Cdk2 (Santa Cruz); p27^Kip1 (Santa Cruz); p21^Cip1 (Santa Cruz); actin (Sigma); or tubulin (ICN) and developed with ECL system (AmershamPharmacia biotech)
(§2) FIG. 6. (A) JNK is activated after N13-13-10C treatment. HT29 cells were treated for 1, 3, 6 and 24 h with N13-13-10C (35 μM), harvested and immunoblotted to assess activation of SAP/JNK MAP kinase. Western blot was first probed with the JNK-phosphor specific antibody, was stripped and reprobed with the pan-JNK antibody and actin to normalize total protein level. […]

Bax = assay: Western blot of Bax; conditions: HT29 cells
Experimental: as §1, §2

HT29 cells = assay: Annexin V-FITC detection assay; conditions: HT29, 35 μM, 40 h treatment
Experimental: Annexin V assay. Treated cells were harvested with EDTA 0.02% in Hank's Balanced Salt Solution (HBSS), washed in HBSS then in PBS (phosphate buffered saline) containing 1% BSA (Bovine serum albumine) and finally resuspended in Annexin V incubation buffer (10 mM HEPES 7.4; 140 mM NaCl; 2.5 mM CaCl2) containing 1% BSA. 10^5 cells were incubated with 5 μl Annexin-V-FITC (Bender MedSystems) for 1 h at room temperature and in the dark. Dead cells were stained with Propidium Iodide (PI) at 2 μg/ml. The analysis was immediately performed by flow cytometry.
FIG. 5. Detection of early apoptosis. Annexin V assay after 40 h of treatment with DMSO (right panel), N13-13-10C, 35 µM (central panel), or Taxol, 11 nM (left panel). HT29 treated cells were stained with Annexin V-FITC and PI and subjected to flow cytometry. Fluorescence dot blots of annexin V positive (vertical axis) and PI positive (horizontal axis, logarithmic values) cells are shown. Cell distribution expressed as percentage of the population is indicated: early apoptotic cells in quadrant 1, Q1 (AnV+/IP−); dead cells in Q2 (AnV+/IP+); living cells in Q3 (AnV−/IP−); necrotic cells in Q4 (AnV−/IP+).

JNK = assay: Western blot with JNK-phosphorylation specific antibody; conditions: HT29 cells
Experimental: as §1, §2

[1] = tested on: pRb, p130, p107, p27kip1, p21Cip1; assay: Western blot of G1 checkpoint proteins in synchronized T98 g cells
Experimental: as §1
FIG. 8. Expression of protein involved in G0/G1 checkpoint. (A.) HT29 cells were treated for 1, 3, 6 and 24 h with N10-13-10C (40 μM) or N13-13-10C (35 µM), harvested and immunoblotted to assess total pRb levels or Cdk4 specific phosphorylation at pRb-Ser^780 (PpRb). Western blot was first probed with the pRb-Ser^780 phosphorylation specific antibody, was stripped and reprobed with the pan-pRb antibody and tubulin to normalize total protein level. (B.) T98 g cells were synchronized by serum starvation and reinitiated with 10% FCS and DMSO (C), N13-13-10C (100 μM) or Taxol (30 nM) for 15, 17, 24 or 29 h. Western blot of total protein extracts was probed with antibodies to p130, pRb, p107, Cdk2, cycA, p27, p21 and actin. Unphosphorylated, hypophosphorylated as well as hyperphosphorylated pRb are detected (arrows). (C.) HT29 cells treated for 24 and 48 h with N13-13-10C (40 μM) or DMSO as control. Immunoblots were stained with antibodies to Cdk2, cycA, p21, p27 and actin.

For `COc1ccc(CCN(CC(=O)N(CCc2ccccc2)CC(N)=O)C(=O)CNCCc2ccccc2)cc1` [N10-13-10C], the “Bcl-xL phosphorylation (slower migrating band)” value (Bcl-xL) was “not observed” and the Bax level (Bax) was “not increased”.

In the case of `COc1ccc(CCNCC(=O)N(CCc2ccc(OC)cc2)CC(=O)N(CCc2ccccc2)CC(N)=O)cc1` [N13-13-10C], the “Early apoptotic cells (IP negative, Annexin V positive)” value (HT29 cells) is reported as 14%, the “Increase of early apoptotic cells with respect to control cells” value (HT29 cells) is reported as 3.5 fold and the “Time of JNK activation (phosphorylation)” value (JNK) is reported as 3 to 6 h. For the same molecule, the “Time of p21Cip1 peak levels” value ([1]; T98 g, 100 μM) was 17 h, the p27kip1 level ([1]; T98 g, after 15 h of treatment) was “appreciable induction” and the “Total pRb levels” value ([1]; synchronized T98 g, 100 μM) was “decreased total pRb levels”. The p107 levels ([1]; synchronized T98 g, 100 μM) was “down regulated”, the p130 phosphorylation ([1]; synchronized T98 g, 100 μM) was “remains also hypophosphorylated” and the p130 total levels ([1]; synchronized T98 g, 100 μM) was “total levels are increased”. For the same molecule, the pRb hyperphosphorylation ([1]; synchronized T98 g, 100 μM) was “prevented pRb hyperphosphorylation”.

— patent US20060229255A1, “Identification of n-alkylglycine trimers for induction of apoptosis” (priority 2003, published 2006)
